Key:
Test in all cases: Kinome-wide inhibition profiling
Assay type in all cases: biochemical
[1] = molecular target: T1, ACVRL1 (Homo sapiens, UniProt P37023)
T1 construct: purchased Reaction Biology Corp
Procedure: (§1) In vitro CDK12/cyclinK assays for all compounds and in vitro kinome-wide inhibition profiling of 30d at 10 μM were performed by a CRO company (Reaction Biology Corp., San Diego, CA, USA).

[2] = molecular target: T2, AKT2 (Homo sapiens, UniProt P31751)
T2 construct: purchased Reaction Biology Corp
Procedure: as §1

[3] = molecular target: T3, AKT3 (Homo sapiens, UniProt Q9Y243)
T3 construct: purchased Reaction Biology Corp
Procedure: as §1

[4] = molecular target: T4, BMPR1B (Homo sapiens, UniProt O00238)
T4 construct: purchased Reaction Biology Corp
T4 sequence (O00238 14-502): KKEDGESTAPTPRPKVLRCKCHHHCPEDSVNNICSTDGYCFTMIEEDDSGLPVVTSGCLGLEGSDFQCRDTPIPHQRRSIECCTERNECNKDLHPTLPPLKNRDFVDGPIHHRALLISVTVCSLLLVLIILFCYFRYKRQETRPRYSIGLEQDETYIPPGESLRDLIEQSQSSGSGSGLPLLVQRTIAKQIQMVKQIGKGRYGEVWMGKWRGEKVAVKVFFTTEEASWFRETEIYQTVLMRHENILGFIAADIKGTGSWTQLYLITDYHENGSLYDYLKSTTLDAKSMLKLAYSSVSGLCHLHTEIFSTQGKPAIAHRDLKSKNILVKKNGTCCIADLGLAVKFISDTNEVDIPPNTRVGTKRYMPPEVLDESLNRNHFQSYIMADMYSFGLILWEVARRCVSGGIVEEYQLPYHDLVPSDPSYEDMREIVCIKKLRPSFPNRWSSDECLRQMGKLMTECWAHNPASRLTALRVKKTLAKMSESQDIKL
Procedure: as §1

[5] = molecular target: T5, CAMK4 (Homo sapiens, UniProt Q16566)
T5 construct: purchased Reaction Biology Corp
Procedure: as §1

[6] = molecular target: T6, CDK5/p35 (Homo sapiens, UniProt Q00535)
T6 construct: purchased Reaction Biology Corp
T6 sequence (Q00535 whole entry): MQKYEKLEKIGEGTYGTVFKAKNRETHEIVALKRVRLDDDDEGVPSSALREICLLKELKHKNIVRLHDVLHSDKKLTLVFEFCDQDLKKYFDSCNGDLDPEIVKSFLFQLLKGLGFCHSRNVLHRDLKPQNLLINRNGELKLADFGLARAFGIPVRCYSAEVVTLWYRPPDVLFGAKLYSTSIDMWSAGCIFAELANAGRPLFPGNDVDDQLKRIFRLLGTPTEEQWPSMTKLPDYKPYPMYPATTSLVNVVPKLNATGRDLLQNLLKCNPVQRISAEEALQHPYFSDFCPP
T6 sequence (Q15078 whole entry partner): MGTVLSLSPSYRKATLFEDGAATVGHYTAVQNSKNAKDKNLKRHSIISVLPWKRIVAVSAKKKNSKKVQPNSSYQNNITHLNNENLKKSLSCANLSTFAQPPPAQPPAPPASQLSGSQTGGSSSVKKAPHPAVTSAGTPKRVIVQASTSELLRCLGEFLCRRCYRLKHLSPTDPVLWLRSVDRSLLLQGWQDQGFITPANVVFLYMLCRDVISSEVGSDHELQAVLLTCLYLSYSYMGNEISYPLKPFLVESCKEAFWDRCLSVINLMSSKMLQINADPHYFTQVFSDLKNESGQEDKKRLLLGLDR
Procedure: as §1

[7] = molecular target: T7, CLK1 (Homo sapiens, UniProt P49759)
T7 construct: purchased Reaction Biology Corp
Procedure: as §1

[8] = molecular target: T8, CSNK1A1 (Homo sapiens, UniProt P48729)
T8 construct: purchased Reaction Biology Corp
Procedure: as §1

[9] = molecular target: T9, CSNK2A2 (Homo sapiens, UniProt P19784)
T9 construct: purchased Reaction Biology Corp
T9 sequence (P19784 whole entry): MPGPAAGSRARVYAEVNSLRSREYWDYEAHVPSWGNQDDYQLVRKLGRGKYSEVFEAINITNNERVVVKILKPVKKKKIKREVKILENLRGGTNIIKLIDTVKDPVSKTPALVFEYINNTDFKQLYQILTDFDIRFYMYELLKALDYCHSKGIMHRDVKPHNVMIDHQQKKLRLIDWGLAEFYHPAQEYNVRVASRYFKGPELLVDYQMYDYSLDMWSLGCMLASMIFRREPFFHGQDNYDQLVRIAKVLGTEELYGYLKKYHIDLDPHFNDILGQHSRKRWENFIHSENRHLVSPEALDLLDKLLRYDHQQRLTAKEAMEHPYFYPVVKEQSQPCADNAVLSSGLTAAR
Procedure: as §1

[10] = molecular target: T10, CTK (Homo sapiens, UniProt P42679)
T10 construct: purchased Reaction Biology Corp
T10 sequence (P42679 whole entry): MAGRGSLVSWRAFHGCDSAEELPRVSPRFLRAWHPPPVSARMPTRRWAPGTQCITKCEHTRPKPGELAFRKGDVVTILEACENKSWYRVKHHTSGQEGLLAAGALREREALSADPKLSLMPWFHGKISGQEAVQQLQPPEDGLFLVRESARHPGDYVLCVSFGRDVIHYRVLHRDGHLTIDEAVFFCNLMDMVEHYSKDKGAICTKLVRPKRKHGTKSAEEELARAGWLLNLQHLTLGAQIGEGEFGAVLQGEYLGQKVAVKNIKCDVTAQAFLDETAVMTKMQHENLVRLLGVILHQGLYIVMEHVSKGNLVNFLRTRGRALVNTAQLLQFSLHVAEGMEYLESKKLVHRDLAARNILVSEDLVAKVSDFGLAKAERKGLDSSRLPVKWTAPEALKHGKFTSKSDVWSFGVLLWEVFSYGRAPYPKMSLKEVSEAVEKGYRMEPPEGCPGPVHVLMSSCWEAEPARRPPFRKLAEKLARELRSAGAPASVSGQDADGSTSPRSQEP
Procedure: as §1

[11] = molecular target: T11, DAPK1 (Homo sapiens, UniProt P53355)
T11 construct: purchased Reaction Biology Corp
Procedure: as §1

[12] = molecular target: T12, EPHA3 (Homo sapiens, UniProt P29320)
T12 construct: purchased Reaction Biology Corp
Procedure: as §1

[13] = molecular target: T13, EPHA7 (Homo sapiens, UniProt Q15375)
T13 construct: purchased Reaction Biology Corp
Procedure: as §1

[14] = molecular target: T14, EPHB1 (Homo sapiens, UniProt P54762)
T14 construct: purchased Reaction Biology Corp
Procedure: as §1

[15] = molecular target: T15, ERK7 (Homo sapiens, UniProt Q8TD08)
T15 construct: purchased Reaction Biology Corp
Procedure: as §1

[16] = molecular target: T16, ERN2 (Homo sapiens, UniProt Q76MJ5)
T16 construct: purchased Reaction Biology Corp
Procedure: as §1

[17] = molecular target: T17, FES (Homo sapiens, UniProt P07332)
T17 construct: purchased Reaction Biology Corp
Procedure: as §1

[18] = molecular target: T18, FLT3 (Homo sapiens, UniProt P36888)
T18 construct: purchased Reaction Biology Corp
Procedure: as §1

[19] = molecular target: T19, FLT4 (Homo sapiens, UniProt P35916)
T19 construct: purchased Reaction Biology Corp
Procedure: as §1

[20] = molecular target: T20, GRK7 (Homo sapiens, UniProt Q8WTQ7)
T20 construct: purchased Reaction Biology Corp
Procedure: as §1

[21] = molecular target: T21, IKK-alpha (Homo sapiens, UniProt O15111)
T21 construct: purchased Reaction Biology Corp
Procedure: as §1

[22] = molecular target: T22, IKK-epsilon (Homo sapiens, UniProt Q14164)
T22 construct: purchased Reaction Biology Corp
Procedure: as §1

[23] = molecular target: T23, LIMK1 (Homo sapiens, UniProt P53667)
T23 construct: purchased Reaction Biology Corp
Procedure: as §1

[24] = molecular target: T24, LKB1 (Homo sapiens, UniProt Q15831)
T24 construct: purchased Reaction Biology Corp
T24 sequence (Q15831 whole entry): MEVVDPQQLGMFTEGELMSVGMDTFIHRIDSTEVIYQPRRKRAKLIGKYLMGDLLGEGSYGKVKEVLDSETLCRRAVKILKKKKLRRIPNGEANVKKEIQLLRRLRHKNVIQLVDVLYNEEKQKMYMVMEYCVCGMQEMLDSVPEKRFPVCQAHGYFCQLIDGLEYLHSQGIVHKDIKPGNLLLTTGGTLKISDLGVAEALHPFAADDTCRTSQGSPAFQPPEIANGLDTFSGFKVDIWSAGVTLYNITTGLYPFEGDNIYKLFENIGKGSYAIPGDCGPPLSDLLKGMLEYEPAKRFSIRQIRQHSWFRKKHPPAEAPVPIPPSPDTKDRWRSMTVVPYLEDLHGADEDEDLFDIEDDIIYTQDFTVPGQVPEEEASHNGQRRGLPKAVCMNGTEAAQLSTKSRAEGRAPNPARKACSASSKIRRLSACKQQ
T24 sequence (Q7RTN6 whole entry partner): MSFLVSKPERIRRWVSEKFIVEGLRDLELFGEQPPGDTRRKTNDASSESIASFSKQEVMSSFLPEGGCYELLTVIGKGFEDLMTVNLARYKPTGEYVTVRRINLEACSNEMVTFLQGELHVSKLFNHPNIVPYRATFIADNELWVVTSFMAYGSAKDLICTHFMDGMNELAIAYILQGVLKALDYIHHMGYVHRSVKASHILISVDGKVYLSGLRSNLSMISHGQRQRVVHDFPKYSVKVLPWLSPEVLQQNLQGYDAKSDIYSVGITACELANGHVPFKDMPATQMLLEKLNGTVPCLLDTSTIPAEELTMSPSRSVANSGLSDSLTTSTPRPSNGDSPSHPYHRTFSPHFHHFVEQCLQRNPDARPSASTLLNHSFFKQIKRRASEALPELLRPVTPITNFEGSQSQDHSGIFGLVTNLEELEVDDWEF
T24 sequence (Q9Y376 whole entry partner): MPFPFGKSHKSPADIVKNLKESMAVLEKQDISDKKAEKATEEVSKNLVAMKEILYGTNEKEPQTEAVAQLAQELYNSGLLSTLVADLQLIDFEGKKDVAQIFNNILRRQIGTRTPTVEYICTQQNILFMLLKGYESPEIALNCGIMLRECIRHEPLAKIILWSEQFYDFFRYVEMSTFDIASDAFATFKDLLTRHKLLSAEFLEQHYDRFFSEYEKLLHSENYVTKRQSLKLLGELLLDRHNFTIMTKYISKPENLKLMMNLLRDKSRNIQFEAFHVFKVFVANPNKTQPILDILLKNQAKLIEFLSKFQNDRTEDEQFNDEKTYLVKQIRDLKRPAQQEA
Procedure: as §1

[25] = molecular target: T25, NEK4 (Homo sapiens, UniProt P51957)
T25 construct: purchased Reaction Biology Corp
Procedure: as §1

[26] = molecular target: T26, NEK9 (Homo sapiens, UniProt Q8TD19)
T26 construct: purchased Reaction Biology Corp
Procedure: as §1

[27] = molecular target: T27, PCTK3 (Homo sapiens, UniProt Q07002)
T27 construct: purchased Reaction Biology Corp
T27 sequence (Q07002 whole entry): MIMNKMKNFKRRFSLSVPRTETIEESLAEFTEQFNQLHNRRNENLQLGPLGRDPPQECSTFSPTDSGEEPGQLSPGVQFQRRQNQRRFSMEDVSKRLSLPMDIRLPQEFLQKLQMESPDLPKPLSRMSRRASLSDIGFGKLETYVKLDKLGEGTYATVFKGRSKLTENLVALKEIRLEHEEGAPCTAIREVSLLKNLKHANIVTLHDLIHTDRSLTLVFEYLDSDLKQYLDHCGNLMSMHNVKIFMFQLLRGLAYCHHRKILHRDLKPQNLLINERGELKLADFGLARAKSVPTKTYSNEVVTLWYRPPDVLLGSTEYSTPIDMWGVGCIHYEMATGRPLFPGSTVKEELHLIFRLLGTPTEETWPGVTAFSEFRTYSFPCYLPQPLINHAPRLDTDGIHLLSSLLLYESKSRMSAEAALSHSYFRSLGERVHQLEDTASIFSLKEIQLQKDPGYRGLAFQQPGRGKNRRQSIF
T27 sequence (Q8ND76 whole entry partner): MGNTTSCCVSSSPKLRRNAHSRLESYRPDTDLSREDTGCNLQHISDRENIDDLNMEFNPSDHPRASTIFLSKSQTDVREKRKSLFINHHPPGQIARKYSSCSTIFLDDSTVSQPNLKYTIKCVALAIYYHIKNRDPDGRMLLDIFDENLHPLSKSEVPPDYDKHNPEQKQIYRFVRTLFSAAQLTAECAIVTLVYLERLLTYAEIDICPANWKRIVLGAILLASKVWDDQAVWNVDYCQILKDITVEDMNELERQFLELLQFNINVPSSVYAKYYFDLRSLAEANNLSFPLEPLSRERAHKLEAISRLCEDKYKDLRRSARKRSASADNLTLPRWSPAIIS
Procedure: as §1

[28] = molecular target: T28, PDGFRa (Homo sapiens, UniProt P16234)
T28 construct: purchased Reaction Biology Corp
Procedure: as §1

[29] = molecular target: T29, PDGFRb (Homo sapiens, UniProt P09619)
T29 construct: purchased Reaction Biology Corp
Procedure: as §1

[30] = molecular target: T30, PKN2 (Homo sapiens, UniProt Q16513)
T30 construct: purchased Reaction Biology Corp
Procedure: as §1

[31] = molecular target: T31, PLK2 (Homo sapiens, UniProt Q9NYY3)
T31 construct: purchased Reaction Biology Corp
Procedure: as §1

[32] = molecular target: T32, PRKCI (Homo sapiens, UniProt P41743)
T32 construct: purchased Reaction Biology Corp
Procedure: as §1

[33] = molecular target: T33, PRKD2 (Homo sapiens, UniProt Q9BZL6)
T33 construct: purchased Reaction Biology Corp
Procedure: as §1

[34] = molecular target: T34, RIPK2 (Homo sapiens, UniProt O43353)
T34 construct: purchased Reaction Biology Corp
Procedure: as §1

[35] = molecular target: T35, TRKA (Homo sapiens, UniProt P04629)
T35 construct: purchased Reaction Biology Corp
T35 sequence (P04629 33-796): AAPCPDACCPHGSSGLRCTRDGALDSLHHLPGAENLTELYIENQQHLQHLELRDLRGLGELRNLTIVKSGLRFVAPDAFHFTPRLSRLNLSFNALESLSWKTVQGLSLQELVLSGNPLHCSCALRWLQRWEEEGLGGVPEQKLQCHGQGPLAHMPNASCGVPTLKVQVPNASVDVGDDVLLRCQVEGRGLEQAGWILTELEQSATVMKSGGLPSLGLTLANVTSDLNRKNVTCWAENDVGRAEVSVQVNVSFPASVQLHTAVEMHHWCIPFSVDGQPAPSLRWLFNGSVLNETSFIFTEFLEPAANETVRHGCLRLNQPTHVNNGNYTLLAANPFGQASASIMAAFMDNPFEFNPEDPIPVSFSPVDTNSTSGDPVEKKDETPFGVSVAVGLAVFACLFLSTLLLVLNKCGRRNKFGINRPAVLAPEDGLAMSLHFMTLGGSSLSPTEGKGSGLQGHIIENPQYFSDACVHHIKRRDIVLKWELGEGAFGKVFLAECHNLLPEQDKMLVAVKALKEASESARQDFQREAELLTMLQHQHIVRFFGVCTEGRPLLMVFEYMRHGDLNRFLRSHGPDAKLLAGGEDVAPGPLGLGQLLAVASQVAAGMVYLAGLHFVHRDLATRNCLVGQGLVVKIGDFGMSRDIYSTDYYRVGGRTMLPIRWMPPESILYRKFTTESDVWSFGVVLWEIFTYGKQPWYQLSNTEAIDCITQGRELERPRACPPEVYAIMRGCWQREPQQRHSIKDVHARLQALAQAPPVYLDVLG
Procedure: as §1

[36] = molecular target: T36, TRKB (Homo sapiens, UniProt Q16620)
T36 construct: purchased Reaction Biology Corp
Procedure: as §1

[37] = molecular target: T37, TSSK3 (Homo sapiens, UniProt Q96PN8)
T37 construct: purchased Reaction Biology Corp
Procedure: as §1

[38] = molecular target: T38, TYK2 (Homo sapiens, UniProt P29597)
T38 construct: purchased Reaction Biology Corp
Procedure: as §1

[39] = molecular target: T39, ULK3 (Homo sapiens, UniProt Q6PHR2)
T39 construct: purchased Reaction Biology Corp
Procedure: as §1

[40] = molecular target: T40, VEGFR2 (Homo sapiens, UniProt P35968)
T40 construct: purchased Reaction Biology Corp
Procedure: as §1

[41] = molecular target: T41, YSK1 (Homo sapiens, UniProt O00506)
T41 construct: purchased Reaction Biology Corp
Procedure: as §1

[42] = molecular target: T42, YSK4 (Homo sapiens, UniProt Q56UN5)
T42 construct: purchased Reaction Biology Corp
Procedure: as §1

[43] = molecular target: T43, ZAP70 (Homo sapiens, UniProt P43403)
T43 construct: purchased Reaction Biology Corp
Procedure: as §1

Compound `CCn1cnc2c(NCc3ccc(-c4ccccn4)nc3)nc(-c3ccc(N)nc3)nc21` [Compound 30d, N-([2,2′-Bipyridin]-5-ylmethyl)-2-(6-aminopyridin-3-yl)-9-ethyl-9H-purin-6-amine] has a remaining activity at 10 µM [1] of 105%, a remaining activity at 10 µM [2] of 100% and a remaining activity at 10 µM [3] of 96.1%. For the same compound, the remaining activity at 10 µM [4] was 115%, the remaining activity at 10 µM [5] was 95.2% and the inhibition at 10 µM [6] was greater than 95%. The remaining activity at 10 µM [6] was 0.7%, the remaining activity at 10 µM [7] was 13.7% and the remaining activity at 10 µM [8] was 26.5%. It also gave a remaining activity at 10 µM [9] of 91.3%, a remaining activity at 10 µM [10] of 87.6% and a remaining activity at 10 µM [11] of 99.7%. It also gave a remaining activity at 10 µM [12] of 7.8%, a remaining activity at 10 µM [13] of 31.3% and a remaining activity at 10 µM [14] of 13.6%. For the same compound, the remaining activity at 10 µM [15] was 13.5%, the remaining activity at 10 µM [16] was 65.4% and the remaining activity at 10 µM [17] was 6.4%. The remaining activity at 10 µM [18] was 40.2%, the remaining activity at 10 µM [19] was 10% and the remaining activity at 10 µM [20] was 49.7%. For the same compound, the remaining activity at 10 µM [21] was 71.5%, the remaining activity at 10 µM [22] was 80.1% and the remaining activity at 10 µM [23] was 59.9%. The inhibition at 10 µM [24] was greater than 95%, the remaining activity at 10 µM [24] was 0.1% and the remaining activity at 10 µM [25] was 95.8%. It also gave a remaining activity at 10 µM [26] of 90%, an inhibition at 10 µM ([27]; CDK18) greater than 95% and a remaining activity at 10 µM ([27]; PCTK3 (listed as CDK18 in Figure 6)) of 2.5%. It also gave a remaining activity at 10 µM [28] of 52.8%, a remaining activity at 10 µM [29] of 34.7% and a remaining activity at 10 µM [30] of 85.8%. The remaining activity at 10 µM [31] was 107%, the remaining activity at 10 µM [32] was 86.1% and the remaining activity at 10 µM [33] was 72.3%. It also gave a remaining activity at 10 µM [34] of 66.1%, a remaining activity at 10 µM [35] of 28.7% and a remaining activity at 10 µM [36] of 16.5%. The remaining activity at 10 µM [37] was 91.5%, the remaining activity at 10 µM [38] was 90.7% and the remaining activity at 10 µM [39] was 91.8%. The remaining activity at 10 µM [40] was 88.6%, the remaining activity at 10 µM [41] was 23.1% and the remaining activity at 10 µM [42] was 96.8%. The remaining activity at 10 µM [43] was 100%.
